Experimental data: PMC8041284, “Tunable Methacrylamides for Covalent Ligand Directed Release Chemistry” (Journal of the American Chemical Society, 2021)
Where a SMILES comes first, the peptide text is derived from it. Bridges are numbered along the chain shown (N, C = ends).

Biological target: BTK (Homo sapiens, UniProt Q06187)
Assay: biochemical
Settings: read-out: BTK inhibition (%), 0.75 uM BTK, […] probe 3l, 15 min preincubation

Chain of BTK (Q06187 402-655 limits assumed): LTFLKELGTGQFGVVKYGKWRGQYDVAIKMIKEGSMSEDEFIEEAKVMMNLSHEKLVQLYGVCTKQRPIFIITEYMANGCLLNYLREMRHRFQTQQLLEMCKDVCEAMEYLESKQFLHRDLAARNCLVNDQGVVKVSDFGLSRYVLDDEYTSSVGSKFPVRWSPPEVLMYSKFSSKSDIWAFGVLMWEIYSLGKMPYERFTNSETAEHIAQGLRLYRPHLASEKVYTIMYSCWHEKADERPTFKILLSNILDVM

COc1ccc(S(=O)(=O)N(CCO)c2ccccc2CN(C)C/C=C/c2ccc(Cl)cc2)cc1 [PCM-0215495]
inhibition at 10 µM: 70.3%

CC(C)OC(=O)OCOP(=O)(CO[C@H](C)Cn1cnc2c(N)ncnc21)OCOC(=O)OC(C)C [PCM-0214620]
inhibition at 10 µM: -14.8%

CC(C)C[C@H](NC(=O)[C@H]1O[C@@H]1C(=O)O)C(=O)NCCCCN=C(N)N [PCM-0215218]
inhibition at 10 µM: 15.4%

Cc1cc(CN2CCN(c3c(Br)cnc4nc(-c5ccc(N6CCN(C)CC6)cc5)[nH]c34)CC2)no1 [PCM-0095479]
inhibition at 10 µM: 4.3%

CC1(C)CC[C@]2(C(=O)O)CC[C@]3(C)C(=CC[C@@H]4[C@@]5(C)CC[C@H](O[C@@H]6O[C@H](C(=O)O)[C@@H](O)[C@H](O[C@@H]7OC[C@@H](O)[C@H](O)[C@H]7O)[C@H]6O)C(C)(C)[C@@H]5CC[C@]43C)[C@@H]2C1 [PCM-0216434]
inhibition at 10 µM: 3.9%

CN(C[C@@H]1COCCO1)S(=O)(=O)Nc1ccc2ccc3ncc(-c4cnn(C)c4)cc3c(=O)c2c1 [PCM-0095338]
inhibition at 10 µM: 33.1%

C=CCS[S+]([O-])CC=C (stereo not drawn) [PCM-0215928]
inhibition at 10 µM: -21%

CN(C)c1ccc(-c2nc3ncc(Cl)c(N4CCN(CC(=O)Nc5nccs5)CC4)c3[nH]2)cc1 [PCM-0095191]
inhibition at 10 µM: -2.6%

CC(=O)O/N=C1\C(=O)N(Cc2cc(Cl)ccc2Cl)c2ccc(Cl)cc21 [PCM-0095733]
inhibition at 10 µM: 28.6%

COc1cc2c(Oc3ccc4[nH]c(C)cc4c3F)ccnc2cc1OCC1(N)CC1 [PCM-0216115]
inhibition at 10 µM: 39.4%

CC(C)(C)OC(=O)N[C@@H]1CCCC[C@H]1N [PCM-0215045]
inhibition at 10 µM: -24.1%

COc1ccc(/C=C/c2cc(O)cc(O)c2)cc1O [PCM-0216438]
inhibition at 10 µM: 14.7%

C[C@H]1[C@H](C)CC[C@]2(C(=O)O)CC[C@]3(C)C(=CC[C@@H]4[C@@]5(C)CC[C@H](O)C(C)(C)[C@@H]5CC[C@]43C)[C@H]12 [PCM-0214657]
inhibition at 10 µM: 10.9%

Cc1cccc(N(C)C(=S)Oc2ccc3ccccc3c2)c1 [PCM-0007505]
inhibition at 10 µM: 4.7%

OCc1ccc(O)cc1 [PCM-0215041]
inhibition at 10 µM: 9.3%

CC(C)(O/N=C(\C(=O)N[C@@H]1C(=O)N2C(C(=O)[O-])=C(C[n+]3ccccc3)CS[C@H]12)c1csc(N)n1)C(=O)O [PCM-0215253]
inhibition at 10 µM: 6.8%

Cc1c(N)nc([C@H](CC(N)=O)NC[C@H](N)C(N)=O)nc1C(=O)N[C@H](C(=O)N[C@H](C)[C@@H](O)[C@H](C)C(=O)N[C@H](C(=O)NCCc1nc(-c2nc(C(=O)NCCC[S+](C)C)cs2)cs1)[C@@H](C)O)[C@@H](O[C@@H]1O[C@@H](CO)[C@@H](O)[C@H](O)[C@@H]1O[C@H]1O[C@H](CO)[C@@H](O)[C@H](OC(N)=O)[C@@H]1O)c1cnc[nH]1 [PCM-0215181]
inhibition at 10 µM: 7.7%

CC(=O)Nc1cccc2c1c(Sc1ccc(Cl)cc1)c(C)n2CC(=O)O [PCM-0215238]
inhibition at 10 µM: -9.3%

Oc1cc(CNC(=S)/C=C/c2cc(O)c(O)c(Br)c2)cc(O)c1O [PCM-0215728]
inhibition at 10 µM: 43.4%

COc1cc2c(cc1OC)[C@H]1C[C@@H](OC(=O)[C@@H](N)C(C)C)[C@H](CC(C)C)CN1CC2 [PCM-0216567]
inhibition at 10 µM: -27%

CCCCOC(=O)c1ccccc1Nc1cccc(C(F)(F)F)c1 [PCM-0216094]
inhibition at 10 µM: 21.4%

CNCc1ccc(-c2cc(-c3nc(-c4ccc(S(=O)(=O)C(C)C)cc4)cnc3N)on2)cc1 [PCM-0213360]
inhibition at 10 µM: 17.9%

O=c1c(-c2ccc(O[C@@H]3O[C@H](CO)[C@@H](O)[C@H](O)[C@H]3O)cc2)coc2cc(O)cc(O)c12 [PCM-0215108]
inhibition at 10 µM: -9.7%

CCOC(=O)C1=C(C)NC(C)=C(C(=O)OCC)C1c1ccccc1/C=C/C(=O)OC(C)(C)C [PCM-0085989]
inhibition at 10 µM: 16.3%

Nc1ccn(C[C@@H](CO)OCP(=O)(O)O)c(=O)n1 [PCM-0095189]
inhibition at 10 µM: -12.8%

COC(=O)[C@H](c1ccccc1Cl)N1CCc2sccc2C1 [PCM-0090332]
inhibition at 10 µM: 2.3%

CC(C)=CC[C@@H](O)C1=CC(=O)c2c(O)ccc(O)c2C1=O [PCM-0215694]
inhibition at 10 µM: 69.7%

C[C@@]1(c2cc(-c3cncnc3)c(F)cc2F)CCSC(N)=N1 [PCM-0095088]
inhibition at 10 µM: -25.7%

CCO[C@@H]1OC(=O)C[C@@H]1NC(=O)[C@@H]1CCCN1C(=O)[C@@H](NC(=O)c1ccc(N)c(Cl)c1)C(C)(C)C [PCM-0214671]
inhibition at 10 µM: -8.6%

CC(=O)N1CCN(CCOc2ccc(C3CCN(C4=Nn5c(nnc5C(F)(F)F)CC4)CC3)cc2)CC1 [PCM-0215224]
inhibition at 10 µM: -17%

NC(=O)c1cnc2[nH]ccc2c1NC1[C@@H]2CC3C[C@H]1CC(O)(C3)C2 (stereo partly drawn) [PCM-0215550]
inhibition at 10 µM: 94.5%

O=c1[nH]c(=S)[nH]c2nc(-c3ccccc3)c(-c3ccccc3)nc12 [PCM-0215641]
inhibition at 10 µM: 17%

CCS(=O)(=O)Nc1ccc(Oc2ccc(F)cc2F)c(-c2cn(C)c(=O)c3[nH]ccc23)c1 [PCM-0214596]
inhibition at 10 µM: 16.2%

O=C(Nc1ccccc1)Nc1ccc(-c2ccc(C(=O)[C@@H]3CCC[C@H]3C(=O)O)cc2)cc1 [PCM-0095351]
inhibition at 10 µM: 22.6%

CO/N=C(\C(=O)N[C@@H]1C(=O)N2C(C(=O)OCOC(=O)C(C)(C)C)=C(C)CS[C@H]12)c1csc(N)n1 [PCM-0216124]
inhibition at 10 µM: -4.7%

CC(=O)OCC(=O)[C@@]1(O)CC[C@H]2[C@@H]3CCC4=CC(=O)C=C[C@]4(C)[C@H]3[C@@H](O)C[C@@]21C [PCM-0214701]
inhibition at 10 µM: 2.1%

CC(=O)c1ccc(O)cc1O [PCM-0215067]
inhibition at 10 µM: 9.3%

C=C[C@]1(C)C[C@@H](OC(=O)CSC(C)(C)CNC(=O)[C@H](N)C(C)C)[C@]2(C)[C@H](C)CC[C@]3(CCC(=O)[C@H]32)[C@@H](C)[C@@H]1O [PCM-0214765]
inhibition at 10 µM: 20.2%

CC12CCC(CC1)C(C)(C)O2 [PCM-0215918]
inhibition at 10 µM: 11%

CC1=C(/C=C/C(C)=C/C=C/C(C)=C/C=C/C=C(C)/C=C/C=C(C)/C=C/C2=C(C)C(=O)[C@@H](O)CC2(C)C)C(C)(C)C[C@H](O)C1=O [PCM-0214960]
inhibition at 10 µM: 16.6%

Nc1ccccc1NC(=O)c1ccc(CNC(=O)OCc2cccnc2)cc1 [PCM-0094980]
inhibition at 10 µM: 9.7%

Nc1nc(F)nc2c1ncn2[C@@H]1O[C@H](CO)[C@@H](O)[C@@H]1O [PCM-0086227]
inhibition at 10 µM: -19.5%

O=c1[nH]c(-c2ccc(C(F)(F)F)cc2)nc2c1CSCC2 [PCM-0095054]
inhibition at 10 µM: -25.5%

COc1ccc2[nH]cc(/C=C3\C(=O)Nc4ccc(NC(=O)CCN5CCCCC5)cc43)c2c1 [PCM-0216653]
inhibition at 10 µM: 51.7%

CCCCCCCCCCCCCCCCOc1nc2ccc(C)cc2c(=O)o1 [PCM-0215987]
inhibition at 10 µM: -28.9%

Nc1nc2ccc(OC(F)(F)F)cc2s1 [PCM-0065440]
inhibition at 10 µM: -10.1%

O=C(O)/C(S)=C/c1c[nH]c2ccc(F)cc12 [PCM-0215343]
inhibition at 10 µM: 35.5%

CN1C(C(=O)Nc2ccccn2)=C(O)c2sccc2S1(=O)=O [PCM-0086073]
inhibition at 10 µM: -6.9%

Nc1ncnc2c1ncn2[C@@H]1O[C@H](CO)[C@@H](O)[C@H]1O [PCM-0090045]
inhibition at 10 µM: 14%

COc1cccc(CCc2ccccc2OCC(CN(C)C)OC(=O)CCC(=O)O)c1 (stereo not drawn) [PCM-0214923]
inhibition at 10 µM: -22.6%

C=C1CC[C@@H]2[C@](C)(CO)[C@H](O)CC[C@@]2(C)[C@H]1C/C=C1\C=COC1=O [PCM-0215003]
inhibition at 10 µM: 14%

OC[C@H]1O[C@@](CO)(OC[C@@]2(O[C@H]3O[C@H](CO)[C@@H](O)[C@H](O)[C@H]3O)O[C@H](CO)[C@@H](O)[C@@H]2O)[C@@H](O)[C@@H]1O [PCM-0216401]
inhibition at 10 µM: 21.6%

CS(=O)(=O)Nc1ccc([N+](=O)[O-])cc1Oc1ccccc1 [PCM-0064916]
inhibition at 10 µM: 3.4%

NCCCC[C@H](NC(=O)[C@@H]1CCCN1C(=O)[C@@H]1CSSC[C@H](NC(=O)CNC(=O)CNC(=O)CN)C(=O)N[C@@H](Cc2ccc(O)cc2)C(=O)N[C@@H](Cc2ccccc2)C(=O)N[C@@H](CCC(N)=O)C(=O)N[C@@H](CC(N)=O)C(=O)N1)C(=O)NCC(N)=O [PCM-0216274] (H-GGGCYFQNCPKG-NH2; disulfide 4-9)
inhibition at 10 µM: -3.4%

N#C/C(=C1/SC[C@@H](c2ccc(Cl)cc2Cl)S1)n1ccnc1 [PCM-0214788]
inhibition at 10 µM: 3.9%

CN1CCN(Cc2ccc(NC(=O)Nc3ccc(Oc4cc(NC(=O)C5CC5)ncn4)cc3)cc2C(F)(F)F)CC1 [PCM-0215388]
inhibition at 10 µM: 79.5%

COc1c(C)c(C(=O)c2ccc(N)c(C(=O)O)c2)n2ccccc12 [PCM-0215263]
inhibition at 10 µM: 17.2%

Oc1ccc2c(c1)OC[C@]1(O)Cc3cc(O)c(O)cc3[C@H]21 [PCM-0216323]
inhibition at 10 µM: 0%

Cc1ncc(Cl)cc1NCc1ccc(C(=O)N[C@@H](CC2CCCC2)C(=O)NC2CC2)s1 [PCM-0215421]
inhibition at 10 µM: 15.4%

COC(=O)c1ccccc1O [PCM-0215919]
inhibition at 10 µM: -10.9%

O=C(c1ccc(F)c(F)c1Nc1ccc(I)cc1F)N1CC(O)([C@@H]2CCCCN2)C1 [PCM-0215480]
inhibition at 10 µM: -5.5%

Cc1ccc([C@@H]2O[C@H](CO)[C@@H](O)[C@H](O)[C@H]2O)cc1Cc1ccc(-c2ccc(F)cc2)s1 [PCM-0095519]
inhibition at 10 µM: 7.6%

CSc1ccc(C(=O)/C=C/c2cc(C)c(OC(C)(C)C(=O)O)c(C)c2)cc1 [PCM-0214917]
inhibition at 10 µM: 7%

COc1ccc(CCCOC(Cn2ccnc2)c2ccc(OC)cc2)cc1 (stereo not drawn) [PCM-0215655]
inhibition at 10 µM: -8.5%

c1ccc2c(CCNc3ccc(Nc4ccncc4)cc3)c[nH]c2c1 [PCM-0095026]
inhibition at 10 µM: 26.9%

C[C@@](Cc1ccc(O)c(O)c1)(NN)C(=O)O [PCM-0065259]
inhibition at 10 µM: -14.8%

Cc1cn([C@H]2C[C@H](N=[N+]=[N-])[C@@H](CO)O2)c(=O)[nH]c1=O [PCM-0085965]
inhibition at 10 µM: -3.1%

CC(C)OC(=O)CCC/C=C\C[C@@H]1[C@@H](/C=C/C(F)(F)COc2ccccc2)[C@H](O)C[C@@H]1O [PCM-0216028]
inhibition at 10 µM: -61.5%

CC(C)=CCC[C@](C)(O[C@@H]1O[C@H](CO[C@@H]2OC[C@@H](O)[C@H](O)[C@H]2O)[C@@H](O)[C@H](O)[C@H]1O)[C@H]1CC[C@]2(C)[C@@H]1[C@H](O)C[C@@H]1[C@@]3(C)CC[C@H](O[C@@H]4O[C@H](CO)[C@@H](O)[C@H](O)[C@H]4O[C@@H]4O[C@H](CO)[C@@H](O)[C@H](O)[C@H]4O)C(C)(C)[C@@H]3CC[C@]12C [PCM-0216464]
inhibition at 10 µM: 4.6%
